Reference: PubChem BioAssay (NCI)
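Cultured in 96-well plates, cells were exposed to test compound for 48 hours across five concentrations. GI50: concentration for 50% inhibition of growth. Definition used: TGI = concentration required for complete inhibition of growth.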

What was measured:
Experiment in all cases: NCI tumour cell line growth inhibition, 48 h
SK-MEL-5 melanoma = test system: SK-MEL-5 melanoma
RXF 393 renal = test system: RXF 393 renal
OVCAR-4 ovarian = test system: OVCAR-4 ovarian
SN12C renal = test system: SN12C renal
NCI-H522 lung = test system: NCI-H522 lung
A549 NSCLC = test system: A549 NSCLC
SF-268 CNS = test system: SF-268 CNS
RPMI-8226 leukemia = test system: RPMI-8226 leukemia
HL-60(TB) leukemia = test system: HL-60(TB) leukemia
SW-620 colon = test system: SW-620 colon
M14 melanoma = test system: M14 melanoma
HCT-116 colon = test system: HCT-116 colon
UACC-62 melanoma = test system: UACC-62 melanoma
K-562 leukemia = test system: K-562 leukemia
786-0 renal = test system: 786-0 renal
HCC-2998 colon = test system: HCC-2998 colon
BT-549 breast = test system: BT-549 breast
CAKI-1 renal = test system: CAKI-1 renal
NCI-H226 lung = test system: NCI-H226 lung
MDA-MB-435 = test system: MDA-MB-435
U251 CNS = test system: U251 CNS
SK-OV-3 ovarian = test system: SK-OV-3 ovarian
ACHN renal = test system: ACHN renal
OVCAR-5 ovarian = test system: OVCAR-5 ovarian
COLO 205 colon = test system: COLO 205 colon
IGROV1 ovarian = test system: IGROV1 ovarian
A498 renal = test system: A498 renal
EKVX NSCLC = test system: EKVX NSCLC
SNB-75 CNS = test system: SNB-75 CNS
SK-MEL-2 melanoma = test system: SK-MEL-2 melanoma
T-47D breast = test system: T-47D breast
MCF7 breast = test system: MCF7 breast
UACC-257 melanoma = test system: UACC-257 melanoma
LOX IMVI melanoma = test system: LOX IMVI melanoma
HOP-92 NSCLC = test system: HOP-92 NSCLC
SK-MEL-28 melanoma = test system: SK-MEL-28 melanoma
MALME-3M melanoma = test system: MALME-3M melanoma
SF-295 CNS = test system: SF-295 CNS
KM12 colon = test system: KM12 colon
NCI-H23 lung = test system: NCI-H23 lung
PC-3 prostate = test system: PC-3 prostate
MOLT-4 leukemia = test system: MOLT-4 leukemia
DU-145 prostate = test system: DU-145 prostate
SR leukemia = test system: SR leukemia
HT29 colon = test system: HT29 colon
HCT-15 colon = test system: HCT-15 colon
TK-10 renal = test system: TK-10 renal
CCRF-CEM leukemia = test system: CCRF-CEM leukemia
SF-539 CNS = test system: SF-539 CNS
NCI-H460 lung = test system: NCI-H460 lung
SNB-19 CNS = test system: SNB-19 CNS
MDA-MB-231 breast = test system: MDA-MB-231 breast
OVCAR-8 ovarian = test system: OVCAR-8 ovarian
NCI/ADR-RES ovarian = test system: NCI/ADR-RES ovarian
HOP-62 NSCLC = test system: HOP-62 NSCLC
HS 578T breast = test system: HS 578T breast
UO-31 renal = test system: UO-31 renal

## Cn1ccnc1C(=O)/C=C/c1ccc(CNC(=O)c2ccc(S(F)(F)(F)(F)F)cc2)cc1
SK-MEL-5 melanoma
  GI50: 4.57 µM
  TGI: 8.52 µM
RXF 393 renal
  GI50: 3.53 µM
  TGI: 7.41 µM
OVCAR-4 ovarian
  GI50: 3.64 µM
  TGI: 11.3 µM
SN12C renal
  GI50: 5.74 µM
  TGI: 18.6 µM
NCI-H522 lung
  GI50: 4.11 µM
  TGI: 8.23 µM
A549 NSCLC
  GI50: 5.92 µM
  TGI: > 25 µM
SF-268 CNS
  GI50: 3.44 µM
  TGI: 7.52 µM
RPMI-8226 leukemia
  GI50: 1.3 µM
  TGI: 8.28 µM
HL-60(TB) leukemia
  GI50: 4.87 µM
  TGI: 17.1 µM
SW-620 colon
  GI50: 1.66 µM
  TGI: 5.85 µM
M14 melanoma
  GI50: 4.58 µM
  TGI: 9.4 µM
HCT-116 colon
  GI50: 3.17 µM
  TGI: 7.36 µM
UACC-62 melanoma
  GI50: 3.98 µM
  TGI: 9.1 µM
K-562 leukemia
  GI50: 1.05 µM
  TGI: > 25 µM
786-0 renal
  GI50: 4.09 µM
  TGI: 8.27 µM
HCC-2998 colon
  GI50: 3.7 µM
  TGI: 7.17 µM
BT-549 breast
  GI50: 3.49 µM
  TGI: 7.63 µM
CAKI-1 renal
  GI50: 3.26 µM
  TGI: 6.9 µM
NCI-H226 lung
  GI50: 5.84 µM
  TGI: > 25 µM
MDA-MB-435
  GI50: 5.76 µM
  TGI: 16.1 µM
U251 CNS
  GI50: 1.45 µM
  TGI: 5.33 µM
SK-OV-3 ovarian
  GI50: 7.7 µM
  TGI: > 25 µM
ACHN renal
  GI50: 4.23 µM
  TGI: 7.74 µM
OVCAR-5 ovarian
  GI50: 4.48 µM
  TGI: 11.6 µM
COLO 205 colon
  GI50: 4.22 µM
  TGI: 9.07 µM
IGROV1 ovarian
  GI50: 3.76 µM
  TGI: 10.6 µM
A498 renal
  GI50: 3.41 µM
  TGI: 6.84 µM
EKVX NSCLC
  GI50: 4.38 µM
  TGI: 10.3 µM
SNB-75 CNS
  GI50: 2.12 µM
  TGI: 5.41 µM
SK-MEL-2 melanoma
  GI50: 4.24 µM
  TGI: 9.22 µM
T-47D breast
  GI50: 4.32 µM
  TGI: 18.6 µM
MCF7 breast
  GI50: 0.868 µM
  TGI: 4.79 µM
UACC-257 melanoma
  GI50: 5.73 µM
  TGI: 15.2 µM
LOX IMVI melanoma
  GI50: 1.12 µM
  TGI: 4.2 µM
HOP-92 NSCLC
  GI50: 4.38 µM
  TGI: 12.1 µM
SK-MEL-28 melanoma
  GI50: 5.2 µM
  TGI: 11.4 µM
MALME-3M melanoma
  GI50: 4.85 µM
  TGI: 12 µM
SF-295 CNS
  GI50: 3.6 µM
  TGI: 7.15 µM
KM12 colon
  GI50: 2.8 µM
  TGI: 6.02 µM
NCI-H23 lung
  GI50: 3.02 µM
  TGI: 7.69 µM
PC-3 prostate
  GI50: 3.64 µM
  TGI: 10.3 µM
MOLT-4 leukemia
  GI50: 5.53 µM
  TGI: 22.5 µM
DU-145 prostate
  GI50: 3.26 µM
  TGI: 6.6 µM
SR leukemia
  GI50: 0.854 µM
  TGI: > 25 µM
HT29 colon
  GI50: 3.9 µM
  TGI: 8.68 µM
HCT-15 colon
  GI50: 1.36 µM
  TGI: 6.49 µM
TK-10 renal
  GI50: 4.38 µM
  TGI: 9.15 µM
CCRF-CEM leukemia
  GI50: 3.25 µM
  TGI: > 25 µM
SF-539 CNS
  GI50: 3.37 µM
  TGI: 7.04 µM
NCI-H460 lung
  GI50: 3.34 µM
  TGI: 9.53 µM
SNB-19 CNS
  GI50: 3.21 µM
  TGI: 7.07 µM
MDA-MB-231 breast
  GI50: 5.57 µM
  TGI: 18.9 µM
OVCAR-8 ovarian
  GI50: 6.54 µM
  TGI: > 25 µM
NCI/ADR-RES ovarian
  GI50: 5.71 µM
  TGI: > 25 µM
HOP-62 NSCLC
  GI50: 4.31 µM
  TGI: 9.55 µM
HS 578T breast
  GI50: 5.45 µM
  TGI: 21.4 µM
UO-31 renal
  GI50: 3.36 µM
  TGI: 6.59 µM
